Measured values as given in patent US20220315554A1, “COMPOUNDS COMPRISING A […] LIGAND AND USE THEREOF” (priority 2019, published 2022).
Numbered stars: 1 amine (or outer) side, 2 acyl side, 3 side chain; on linkers, the order of the positions; unused ones are H or OH. Bridge positions count the residues as written; N and C are the ends. Square brackets hold non-standard residues; d marks the D form. Peptide text beside a SMILES is read from it. * marks the point of attachment. mXylylene = c1cc(C[*:1])cc(C[*:2])c1; αMeF = C[C@](N)(Cc1ccccc1)C(=O)O; Aic = NC1(C(=O)O)Cc2ccccc2C1; 3Amb = NCc1cccc(C(=O)O)c1; Hexanoyl = CCCCCC(=O)*

Key:
Human recombinant FAP [1] = molecular target: T1, Human recombinant FAP (Homo sapiens, UniProt Q12884); assay: FRET-based FAP protease activity assay; type: biochemical; set-up: purchased R&D systems 3715-SE; conditions: pIC50 Category (Activity), FRET substrate, 37° C.
T1 sequence (Q12884 1-760): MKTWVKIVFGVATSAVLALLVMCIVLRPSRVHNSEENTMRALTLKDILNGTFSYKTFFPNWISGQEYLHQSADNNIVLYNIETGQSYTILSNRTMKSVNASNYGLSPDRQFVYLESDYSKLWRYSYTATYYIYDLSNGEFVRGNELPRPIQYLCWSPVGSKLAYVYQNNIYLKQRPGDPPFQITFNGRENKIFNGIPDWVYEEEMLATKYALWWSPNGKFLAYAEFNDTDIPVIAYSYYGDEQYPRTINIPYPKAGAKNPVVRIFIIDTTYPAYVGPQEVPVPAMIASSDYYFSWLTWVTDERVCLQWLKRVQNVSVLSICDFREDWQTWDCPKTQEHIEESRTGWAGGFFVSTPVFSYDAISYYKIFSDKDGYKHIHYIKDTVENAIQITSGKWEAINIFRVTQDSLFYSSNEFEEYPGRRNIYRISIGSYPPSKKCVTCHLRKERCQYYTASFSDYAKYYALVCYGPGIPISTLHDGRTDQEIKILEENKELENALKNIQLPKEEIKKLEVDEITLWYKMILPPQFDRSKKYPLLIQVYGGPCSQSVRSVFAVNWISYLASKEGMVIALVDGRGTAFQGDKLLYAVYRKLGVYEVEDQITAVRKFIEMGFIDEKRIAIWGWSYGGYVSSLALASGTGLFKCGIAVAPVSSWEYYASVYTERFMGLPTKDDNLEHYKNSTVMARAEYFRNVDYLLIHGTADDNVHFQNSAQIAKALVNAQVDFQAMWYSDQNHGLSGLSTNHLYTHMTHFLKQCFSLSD

[2] = molecular target: T2, FAP-expressing human WI-38 fibroblasts (Homo sapiens, UniProt Q12884); assay: Competitive FACS binding assay; conditions: pIC50 Category (FACS), competition with 3 nM Cy5-labeled compound, 4° C., 1 hour
T2 construct: FAP-expressing human WI-38 fibroblasts (ECACC) were cultured in EMEM; host or cells: WI-38 human fibroblasts
T2 sequence (Q12884 1-760): T1 sequence (Q12884 1-760)
Method: Cells were analyzed in an Attune NxT flow cytometer. […]

[3] = Plasma stability assay, mouse plasma; type: in vitro ADME; conditions: 4 h incubation, 37° C., read-out: % intact compound remaining after incubation, Mouse plasma
Human recombinant FAP [4] = molecular target: T1, Human recombinant FAP; assay: Surface plasmon resonance (Biacore) assay; type: binding

IC50 (Human recombinant FAP [1]; recombinant human FAP) [nM] | IC50 ([2]; WI-38 fibroblasts) [nM] | remaining at 4 h, 9.8 µM [3] [%] | IC50 (Human recombinant FAP [1]) [nM] | IC50 [2] [nM] | Kd (Human recombinant FAP [4]) [nM] | Compound
< 10 | < 10 | 85 |  |  |  | CSCC[C@H](NC(C)=O)C(=O)N[C@H]1CSCc2cccc(c2)CSC[C@@H](C(=O)N[C@@H](CC(=O)O)C(=O)N[C@@H](Cc2c[nH]cn2)C(=O)N[C@H](Cc2ccccc2)C(=O)N[C@@H](CCCNC(=N)N)C(=O)N[C@@H](CC(=O)O)C(N)=O)NC(=O)[C@H](Cc2ccccc2)NC(=O)[C@H](CCC(=O)O)NC(=O)[C@H]([C@@H](C)O)NC(=O)[C@@H]2CCCN2C(=O)[C@@H]2CCCN2C1=O [3BP-3211, Ac-Met-[Cys(3MeBn)-Pro-Pro-Thr-Glu-Phe-Cys]-Asp-His-phe-Arg-Asp-NH2] (Ac-MCPPTEFCDH[dF]RD-NH2; linker 2-8 via mXylylene)
 |  |  | < 10 | < 10 | < 10 | CCCCCC(=O)N[C@H]1CSCc2cc(CSCCNC(=O)CN3CCN(CC(=O)O)CCN(CC(=O)O)CCN(CC(=O)O)CC3)cc(c2)CSC[C@@H](C(=O)N[C@H](CC(=O)O)Cc2ccccc2)NC(=O)[C@H](Cc2ccccc2)NC(=O)[C@H](CCC(N)=O)NC(=O)[C@H]([C@@H](C)O)NC(=O)[C@@H]2CCCN2C(=O)[C@@H]2CCCN2C1 [3BP-3660, Hex-[Cys(tMeBn(DOTA-AET))-Pro-Pro-Thr-Gln-Phe-Cys]-Bhf-OH]
< 10 | < 10 |  |  |  | < 10 | CCCCCC(=O)N[C@H]1CSCc2cccc(c2)CSC[C@@H](C(=O)N[C@@H](CC(=O)O)C(=O)NCc2cccc(C(=O)N[C@@H](CCCNC(=N)N)C(N)=O)c2)NC(=O)[C@H](Cc2ccccc2)NC(=O)[C@H](CCC(=O)O)NC(=O)[C@H]([C@@H](C)O)NC(=O)[C@@H]2CCCN2C(=O)[C@@H]2CCCN2C1=O [3BP-3324, Hex-[Cys(3MeBn)-Pro-Pro-Thr-Glu-Phe-Cys]-Asp-Mamb-Arg-NH2] (Hexanoyl-CPPTEFCD[3Amb]R-NH2; linker 1-7 via mXylylene)
< 10 | < 10 |  |  |  | < 10 | CCCCCC(=O)N[C@H]1CSCc2cc(CSCCNC(=O)CN3CCN(CC(=O)O)CCN(CC(=O)O)CCN(CC(=O)O)CC3)cc(c2)CSC[C@@H](C(=O)NCCCC(=O)O)NC(=O)[C@H](Cc2ccccc2)NC(=O)[C@H](CCC(N)=O)NC(=O)[C@H]([C@@H](C)O)NC(=O)[C@@H]2CCCN2C(=O)[C@@H]2CCCN2C1 [3BP-3657, Hex-[Cys(tMeBn(DOTA-AET))-Pro-Pro-Thr-Gln-Phe-Cys]-Gab-OH]
 |  |  | < 10 | < 10 | < 10 | CCCCCC(=O)N[C@H]1CSCc2cc(CSCCNC(=O)CN3CCN4CCN5CCN(CC3)CC(=O)[O][In]([O]C(=O)C4)[O]C(=O)C5)cc(c2)CSC[C@@H](C(=O)N(C)CC(=O)O)NC(=O)[C@H](Cc2ccccc2)NC(=O)[C@H](CCC(N)=O)NC(=O)[C@H]([C@@H](C)O)NC(=O)[C@@H]2CCCN2C(=O)[C@@H]2CCCN2C1=O [3BP-3715, Hex-[Cys(tMeBn(InDOTA-AET))-Pro-Pro-Thr-Gln-Phe-Cys]-Nmg-OH]
< 10 | < 10 |  |  |  | < 10 | CCCCCC(=O)N[C@H]1CSCc2cc(CSCCNC(=O)CN3CCN(CC(=O)O)CCN(CC(=O)O)CCN(CC(=O)O)CC3)cc(c2)CSC[C@@H](C(=O)O)NC(=O)[C@H](Cc2cccc3ccccc23)NC(=O)[C@H](CCC(N)=O)NC(=O)[C@H]([C@@H](C)O)NC(=O)[C@@H]2CCCN2C(=O)[C@@H]2CCCN2C1 [3BP-3650, Hex-[Cys(tMeBn(DOTA-AET))-Pro-Pro-Thr-Gln-1Ni-Cys]-OH]

Further lines, the molecule ahead of its results:

Compound | IC50 (Human recombinant FAP [1]; recombinant human FAP) [nM] | IC50 ([2]; WI-38 fibroblasts) [nM] | remaining at 4 h, 9.8 µM [3] [%] | IC50 (Human recombinant FAP [1]) [nM] | IC50 [2] [nM] | Kd (Human recombinant FAP [4]) [nM]
CSCC[C@H](NC(C)=O)C(=O)N[C@H]1CSCc2cccc(c2)CSC[C@@H](C(=O)N[C@@H](CC(=O)O)C(=O)N[C@@H](Cc2c[nH]cn2)C(=O)N(C)[C@@H](Cc2ccccc2)C(=O)N[C@@H](CCCNC(=N)N)C(=O)N[C@@H](CC(=O)O)C(N)=O)NC(=O)[C@H](Cc2ccccc2)NC(=O)[C@H](CCC(=O)O)NC(=O)[C@H]2NC(=O)[C@@H]3C(CCN3C(=O)[C@@H]3CCCN3C1=O)[C@H]2O [3BP-3188, Ac-Met-[Cys(3MeBn)-Pro-Pro-Thr-Glu-Phe-Cys]-Asp-His-Nmf-Arg-Asp-NH2] | < 10 | < 10 | 97 |  |  | 
CSCC[C@H](NC(C)=O)C(=O)N[C@H]1CSCc2cccc(c2)CSC[C@@H](C(=O)N[C@@H](CC(=O)O)C(=O)N[C@@H](Cc2c[nH]cn2)C(=O)N[C@@](C)(Cc2ccccc2)C(=O)N[C@@H](CCCNC(=N)N)C(=O)N[C@@H](CC(=O)O)C(N)=O)NC(=O)[C@H](Cc2ccccc2)NC(=O)[C@H](CCC(=O)O)NC(=O)[C@H]([C@@H](C)O)NC(=O)[C@@H]2CCCN2C(=O)[C@@H]2CCCN2C1=O [3BP-3203, Ac-Met-[Cys(3MeBn)-Pro-Pro-Thr-Glu-Phe-Cys]-Asp-His-Amf-Arg-Asp-NH2] (Ac-MCPPTEFCDH[αMeF]RD-NH2; linker 2-8 via mXylylene) | < 10 | < 10 | 100 |  |  | 
CSCC[C@H](NC(C)=O)C(=O)N[C@H]1CSCc2cccc(c2)CSC[C@@H](C(=O)N[C@@H](CC(=O)O)C(=O)N[C@@H](Cc2c[nH]cn2)C(=O)N2Cc3ccccc3C[C@H]2C(=O)N[C@@H](CCCNC(=N)N)C(=O)N[C@@H](CC(=O)O)C(N)=O)NC(=O)[C@H](Cc2ccccc2)NC(=O)[C@H](CCC(=O)O)NC(=O)[C@H]2NC(=O)[C@@H]3C(CCN3C(=O)[C@@H]3CCCN3C1=O)[C@H]2O [3BP-3189, Ac-Met-[Cys(3MeBn)-Pro-Pro-Thr-Glu-Phe-Cys]-Asp-His-Tic-Arg-Asp-NH2] | < 10 | < 10 | 100 |  |  | 
CSCC[C@H](NC(C)=O)C(=O)N[C@H]1CSCc2cccc(c2)CSC[C@@H](C(=O)N[C@H](CC(=O)O)C(=O)N[C@@H](Cc2c[nH]cn2)C(=O)N[C@@H](Cc2ccccc2)C(=O)N[C@@H](CCCNC(=N)N)C(=O)N[C@@H](CC(=O)O)C(N)=O)NC(=O)[C@H](Cc2ccccc2)NC(=O)[C@H](CCC(=O)O)NC(=O)[C@H]([C@@H](C)O)NC(=O)[C@@H]2CCCN2C(=O)[C@@H]2CCCN2C1=O [3BP-3183, Ac-Met-[Cys(3MeBn)-Pro-Pro-Thr-Glu-Phe-Cys]-asp-His-Phe-Arg-Asp-NH2] (Ac-MCPPTEFC[dD]HFRD-NH2; linker 2-8 via mXylylene) | 10 to 79.4 | 10 to 79.4 | 98 |  |  | 
CSCC[C@H](NC(C)=O)C(=O)N[C@H]1CSCc2cccc(c2)CSC[C@@H](C(=O)N[C@@H](CC(=O)O)C(=O)N[C@@H](Cc2c[nH]cn2)C(=O)NC2(C(=O)N[C@@H](CCCNC(=N)N)C(=O)N[C@@H](CC(=O)O)C(N)=O)Cc3ccccc3C2)NC(=O)[C@H](Cc2ccccc2)NC(=O)[C@H](CCC(=O)O)NC(=O)[C@H]([C@@H](C)O)NC(=O)[C@@H]2CCCN2C(=O)[C@@H]2CCCN2C1=O [3BP-3190, Ac-Met-[Cys(3MeBn)-Pro-Pro-Thr-Glu-Phe-Cys]-Asp-His-Aic-Arg-Asp-NH2] (Ac-MCPPTEFCDH[Aic]RD-NH2; linker 2-8 via mXylylene) | < 10 | < 10 | 88 |  |  | 
CSCC[C@H](NC(C)=O)C(=O)N[C@@H]1CSCc2cccc(c2)CSC[C@H](C(=O)N[C@@H](CC(=O)O)C(=O)N[C@@H](Cc2c[nH]cn2)C(=O)N[C@@H](Cc2ccccc2)C(=O)N[C@@H](CCCNC(=N)N)C(=O)N[C@@H](CC(=O)O)C(N)=O)NC(=O)[C@H](Cc2ccccc2)NC(=O)[C@H](CCC(=O)O)NC(=O)[C@H]([C@@H](C)O)NC(=O)[C@@H]2CCCN2C(=O)[C@@H]2CCCN2C1=O [3BP-3181, Ac-Metqcys(3MeBn)-Pro-Pro-Thr-Glu-Phe-cys]-Asp-His-Phe-Arg-Asp-NH2] (Ac-M[dC]PPTEF[dC]DHFRD-NH2; linker 2-8 via mXylylene) |  |  | 100 |  |  | 
CCCCCC(=O)N[C@H]1CSCc2cc(CSCCNC(=O)C(CNCCN)CNCCN)cc(c2)CSC[C@@H](C(=O)O)NC(=O)[C@H](Cc2ccccc2)NC(=O)[C@H](CCC(N)=O)NC(=O)[C@H]([C@@H](C)O)NC(=O)[C@@H]2CCCN2C(=O)[C@@H]2CCCN2C1=O [3BP-4063, Hex-[Cys-(tMeBn(N4Ac-AET))-Pro-Pro-Thr-Gln-Phe-Cys]-OH] |  |  |  | < 10 | < 10 | < 10
